Measurements published in paper PMC9365693 (Nature, 2022).
Ends that are not written are not given here.

Columns and labels:
Staphylococcus simulans [1] = assay: Sytox green membrane damage assay, S. simulans; assay type: cell-based; conditions: Sytox green, Gram-positive bacteria, 20 °C, pH 7.2, 2 min before and 6 min after antibiotic; triplicates
Protocol: (§1) The bacterial cultures were grown overnight at 30 °C in TSB media for S. simulans and at 37 °C in LB medium for Bacillus subtilis. Secondary cultures were grown for 3 h until OD600 = 0.5 was reached. The bacterial cells were then centrifuged at 1,500g for 10 min at 4 °C and washed twice with 10 ml of buffer (10 mM Tris, 100 mM NaCl, 1 mM MgCl2 and 0.5% glucose, pH 7.2). The bacterial cells were resuspended to an OD600 = 10 in the buffer and used for the experiment. […] For the assay, 1 μl of the bacterial suspension was added to 1 ml of buffer. For the ion leakage assays, 1 μl of the DiSC-2 probe from a 1 mM stock was added to the cuvette and the fluorescence was measured between a wavelength of 650 nm and 670 nm (bandwidth of […]) for 2 min before the addition of the antibiotic and 6 min after. For the Sytox green leakage assays, 1 μl of the Sytox green probe from a 0.25 mM stock was added to the cuvette and the fluorescence was measured between a wavelength of 500 nm and 520 nm (bandwidth of […]) for 2 min before the addition of the antibiotic and 6 min after. All experiments were performed in triplicates.

S. simulans = assay: MIC, S. simulans (given with permeabilization assay concentrations); assay type: cell-based
Staphylococcus simulans [2] = assay: DiSC membrane depolarization (ion leakage) assay, S. simulans; assay type: cell-based; conditions: DiSC-2 probe, Gram-positive bacteria (Fig. 4h and Extended Data Fig. 10b,c), 20 °C, pH 7.2, 2 min before and 6 min after antibiotic; triplicates
Protocol: as §1

B. subtilis = assay: MIC, B. subtilis (given with permeabilization assay concentrations); assay type: cell-based, Bacillus subtilis
Protocol: as §1

[3] = species not clearly assigned (S. simulans by word order)

`CN[C@H](CC(C)C)C(=O)N[C@H]1C(=O)N[C@@H](CC(N)=O)C(=O)N[C@H]2C(=O)N[C@H]3C(=O)N[C@H](C(=O)N[C@H](C(=O)O)c4cc(O)cc(O)c4-c4cc3ccc4O)[C@H](O)c3ccc(c(Cl)c3)Oc3cc2cc(c3O[C@@H]2O[C@H](CO)[C@@H](O)[C@H](O)[C@H]2O[C@H]2C[C@](C)(N)[C@H](O)[C@H](C)O2)Oc2ccc(cc2Cl)[C@H]1O` [vancomycin] was tested, and the “membrane damage, Sytox green (in words)” value (Staphylococcus simulans [1]) was “Such effects were again absent” and the “concentration stated as 10× MIC” value (S. simulans; [3]) was 10 µM.
With nisin the “decrease in membrane potential / depolarization (in words)” value (Staphylococcus simulans [2]) was “Membrane depolarization was also observed” and the “concentration stated as 1× MIC” value (S. simulans; [3]) was 0.01 µM.
For “plectasin: lipid II binder plectasin (GFGCNGPWDEDDMQCHNHCKSIKGYKGGYCAKGGFVCKCY; ends and bridges not checked; cysteine pairing not given here; UniProt Q53I06 56-95, looked up) [reference compound]”, the “membrane damage, Sytox green (in words)” value (Staphylococcus simulans [1]) was “Such effects were again absent”, the “concentration stated as 1× MIC” value (S. simulans; S. simulans) was 0.5 µM and the “concentration stated as 10× MIC” value (B. subtilis) was 0.2 µM.
